Assays:
[1] = target: T1, Sterol O-acyltransferase 2 (Mus musculus) (UniProt O88908); assay: Ratio of compound IC50 to PRD 043 IC50 for ACAT2 in mouse hepatic microsomal membranes; format: cell membranes; details: Liver, Microsomal Membrane
T1 sequence (whole entry): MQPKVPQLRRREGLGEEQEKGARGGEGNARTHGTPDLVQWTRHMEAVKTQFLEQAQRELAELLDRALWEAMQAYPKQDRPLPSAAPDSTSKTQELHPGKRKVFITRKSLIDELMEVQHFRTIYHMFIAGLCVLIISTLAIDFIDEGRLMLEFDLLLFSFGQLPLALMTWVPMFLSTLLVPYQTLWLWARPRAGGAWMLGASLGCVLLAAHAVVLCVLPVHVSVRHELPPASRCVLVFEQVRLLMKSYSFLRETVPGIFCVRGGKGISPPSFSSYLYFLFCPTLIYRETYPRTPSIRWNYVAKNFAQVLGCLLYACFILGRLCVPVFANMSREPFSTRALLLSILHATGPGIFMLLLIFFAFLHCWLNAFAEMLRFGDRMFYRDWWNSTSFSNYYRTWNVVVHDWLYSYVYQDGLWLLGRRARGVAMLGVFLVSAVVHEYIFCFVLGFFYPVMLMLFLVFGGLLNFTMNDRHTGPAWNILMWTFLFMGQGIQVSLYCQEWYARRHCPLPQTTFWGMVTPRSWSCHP

[2] = Half life in Sprague-Dawley rat liver microsomes at 6 ug/ml by HPLC method; format: ADME

Ratio IC50 [1]	half-life at 6 ug/ml [2]	SMILES
< 20	> 9 h	COc1ccc(CNC(=O)[C@@]2(C)[C@@H](OC(C)=O)CC[C@]3(C)[C@H]4[C@@H](O)c5c(cc(-c6cccnc6)oc5=O)O[C@]4(C)[C@@H](OC(=O)c4ccc(C#N)cc4)C[C@H]32)c(OC)c1
< 20	> 9 h	CC(=O)O[C@H]1CC[C@@]2(C)[C@@H](C[C@H](OC(=O)c3ccc(C#N)cc3)[C@@]3(C)Oc4cc(-c5cccnc5)oc(=O)c4[C@H](O)[C@H]23)[C@]1(C)COC(=O)C(C)C
< 20	> 9 h	C[C@@]12CO[C@@H](c3ccccc3F)O[C@H]1CC[C@@]1(C)[C@H]2C[C@H](OC(=O)c2ccc(F)cc2)[C@@]2(C)Oc3cc(-c4cccnc4)oc(=O)c3[C@H](O)[C@H]12
< 20	> 9 h	Cc1ccccc1[C@@H]1OC[C@@]2(C)[C@@H]3C[C@H](OC(=O)c4ccc(F)cc4)[C@@]4(C)Oc5cc(-c6cccnc6)oc(=O)c5[C@H](O)[C@@H]4[C@@]3(C)CC[C@@H]2O1

Reference: ChEMBL document CHEMBL3880418, “Pyripyropene derivative having ACAT2 inhibiting activity and stable to metabolizing enzymes” (2013)
